The text below walks through data of patent publication US20230119013A1, “N-CYANOPYRROLIDINES WITH ACTIVITY AS USP30 INHIBITORS” (MISSION THERAPEUTICS LIMITED, priority 2020, published 2023).

Data set [1] deals with UUO injured kidneys. Briefly: UUO model of tubulointerstitial fibrosis. Type of data set: in vivo, C57BL/6 mice. As to conditions: 10 days. The source says:
(a) Bleomycin-induced lung fibrosis model, which is a leading preclinical in vivo model of Idiopathic Pulmonary Fibrosis. [Kobayashi et al, 2016, J Immunol, 197(2):504-516] (b) Diet-induced model of NAFLD and glucose homeostasis. [Nishida et al, 2013, Lab Invest; February; 93(2):230-41] (c) MPTP Model of Parkinson's Disease, which is a commonly used paradigm for looking at neurodegeneration in the dopaminergic system of the brain which is triggered by chemically-induced mitochondrial dysfunction. [Karuppagouner et al, 2014, Sci Rep. 2014 May 2; 4:4874] (d) Ndufs4KO Leigh syndrome model. [Kruse et al, 2008, Cell Metab. April; 7(4):312-20] (e) Aged rodent model: effects on hippocampal, cognitive and motor function. [Kobilo et al, 2014, Learn Mem. January 17; 21(2):119-26; Creed et al, 2019, Neuroscience. June 15; 409:169-179; Van Skike et al, 2020, Aging Cell. 19; e13057]. Example 1 was assessed in this model. (f) UUO causes renal injury characterised by tubular cell injury, interstitial inflammation and fibrosis. It serves as a model of irreversible post-renal acute kidney injury (AKI). […]
Example 1 was assessed in the UUO model to determine the ability of the compound to attenuate progressive tubulointerstitial fibrosis and chronic kidney disease (CKD). […]

The subject of data set [2] is TK6 cells. Nature of the data set: In vitro micronucleus assay in TK6 cells. As to conditions: 27 hours recovery. Type of data set: cell-based. The protocol:
The micronucleus assay may be used to determine if a compound is genotoxic by evaluating the presence of micronuclei. Micronuclei may contain chromosome fragments produced from DNA breakage (clastogens) or whole chromosomes produced by disruption of the mitotic apparatus (aneugens).
Example 1 was assessed in the bacterial reverse mutation assay (Ames) and in vitro micronucleus assay. All in vitro tests were conducted with and without exogenous metabolic activation using concentrations up to those limited by cytotoxicity or insolubility.
Induction of chromosome damage was assessed using the in vitro micronucleus assay in TK6 cells. Example 1 was negative for induction of micronuclei when incubated for 3 hours in the presence of exogenous metabolic activation followed by 27 hours recovery, and also when incubated for 27 hours in the absence of exogenous metabolic activation followed by 27 hours recovery.

For data set [3], the target named is T1, USP30 (Mus musculus, UniProt Q3UN04).
T1 construct: in either brain or kidney tissue samples from compound-dosed animals; from tissue; b325 calls 'TE ex vivo' a kidney tissue assay
T1 sequence (Q3UN04 whole entry): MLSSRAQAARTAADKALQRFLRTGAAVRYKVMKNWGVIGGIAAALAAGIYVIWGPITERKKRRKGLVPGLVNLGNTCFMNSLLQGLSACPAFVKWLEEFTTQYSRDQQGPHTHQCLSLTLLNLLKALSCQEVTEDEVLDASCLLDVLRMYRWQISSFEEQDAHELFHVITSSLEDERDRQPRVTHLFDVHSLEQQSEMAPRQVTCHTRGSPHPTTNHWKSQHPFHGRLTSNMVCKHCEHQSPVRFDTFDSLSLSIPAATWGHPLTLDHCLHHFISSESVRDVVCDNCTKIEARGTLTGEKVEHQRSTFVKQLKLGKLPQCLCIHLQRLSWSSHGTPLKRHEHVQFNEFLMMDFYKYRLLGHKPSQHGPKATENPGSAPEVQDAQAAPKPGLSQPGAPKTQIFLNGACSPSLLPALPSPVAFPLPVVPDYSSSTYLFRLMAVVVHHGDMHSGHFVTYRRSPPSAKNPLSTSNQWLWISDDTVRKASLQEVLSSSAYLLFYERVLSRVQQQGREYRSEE
Briefly: USP30 brain tissue target engagement assay (TE ex vivo). Type of data set: in vivo. As to conditions: 2 mg/kg iv, n = 2 avg. As for the experimental part:
50 to 100 mg of tissue was homogenised in 3× volume of lysis buffer (50 mM Tris-base, pH 7.5, 50 mM NaCl, 1% NP-40/Igepal CA-630, 2 mM MgCl2, 10% Glycerol, 5 mM beta-mercaptoethanol, cOmplete mini tablets EDTA free (Roche), PhosStop tablets (Roche)) using the Retch Mixer Mill (MM400). The lysates were cleared and protein quantified using the Bradford Protein assay (Pierce). Lysate containing 60 μg protein was incubated with a final conc of 24 μM of HA-Ahx-Ahx-Ub-VME probe for 60 mins at room temperature. The reaction was stopped by addition of 5×SDS sample loading buffer and proteins separated by SDS-PAGE and western blotting. USP30 was detected using an anti-USP30 Sheep S746D antibody (MRC PPU Reagents and Services) and a rabbit anti sheep secondary IgG (H+L) horseradish peroxidase conjugated (Thermo #31480) and visualised using ECL reagent (GE #RPN2109) on a GE LAS4000 imager. Target engagement was measured by quantitation of the bands corresponding to USP30 and USP30 bound to the Ub-VME probe and expression of this proportion compared to vehicle treated control.
MDR1-MDCK (Madin-Darby Canine Kidney cell monolayer) (in vitro) flux assay. Cell TE WB: USP30 endogenous cellular target engagement western blot (WB) assay. Assays the activity of compounds against USP30 in cells using an irreversible activity probe to monitor USP30 activity. […]

For `COC[C@@H]1C[C@@H](NC(=O)c2ncc(-c3cccc(OC(F)(F)F)c3)o2)CN1C#N` [Example 1, N-((3R,5S)-1-Cyano-5-(methoxymethyl)pyrrolidin-3-yl)-5-(3-(trifluoromethoxy)phenyl)oxazole-2-carboxamide], in data set [1] (15, 5 and 1.5 mg/kg oral BID), the “α-SMA levels in UUO injured kidneys v vehicle treated controls” value is “statistical reduction in α-SMA levels”. Besides, the “collagen deposition (picrosirius red staining) in ligated kidneys” value in data set [1] (15, 5 and 1.5 mg/kg p.o. BID) is reported as “statistically reduced collagen deposition”. The induction of micronuclei result in data set [2] (3 hours in the presence of exogenous metabolic activation) and in data set [2] (27 hours in the absence of exogenous metabolic activation) was “negative” each time.
Turning to `C[C@@H]1C[C@@H](NC(=O)c2ncc(-c3cccc(OC(F)(F)F)c3)o2)CN1C#N` [Example 2, N-((3R,5R)-1-Cyano-5-methylpyrrolidin-3-yl)-5-(3-(trifluoromethoxy)phenyl)oxazole-2-carboxamide], the “TE ex vivo Mouse brain (%) at 15 min” value in data set [3] (15 min) came to 68%. Moreover, in data set [3] (60 min), the “TE ex vivo Mouse brain (%) at 60 min” value was found to be 25%.
